Laboratory results: patent US12448372B2, “Class of triaromatic compounds targeting bifunctional phosphorylation site of STAT3 and applications thereof” (SHANGHAI YUYAO BIOTECH LTD., priority 2019, dated 2025)
Read-outs that look alike come from different tables or passages of the source.

Tests used:
STAT3 protein = STAT3 protein (Homo sapiens, UniProt P40763); experiment: Binding activity to STAT3 protein by microscale thermophoresis (MST); conditions: purified STAT3 recombinant protein
Excerpt: (1) Determination of Binding Activities of Compounds to STAT3 Protein by Microscale Thermophoresis (MST) Method
The microscale thermophoresis (MST) technique is a simple, rapid, and accurate method for quantifying biomolecular interactions. It can measure the movement of molecules in a microscopic temperature gradient field, as well as detect changes of molecular hydration shell, charge and size. When the Nanotemper microscale thermophoresis instrument locally heated by a infrared laser, molecules will move in a directional manner, then the molecular distribution ratio in the temperature gradient field are analyzed by a fluorescence to detect whether a small molecule compound binds to a target protein. The experimental operation is as follows: firstly, compounds to be tested are diluted in a gradient using MST test buffer, total 16 concentrations being configured; subsequently, the purified STAT3 recombinant protein is labeled using the HIS tag labeling kit, and the final concentration of the labeled protein is 100-200 nM; the labeled STAT3 proteins are well mixed with the diluted compounds and incubated and protected from light for 30 minutes; finally the samples were loaded by capillary tube and detected on the instrument. The binding constants (K^D) of small molecules to STAT3 protein were analyzed by Mo. analysis software.

MKN45 = experiment: Cell proliferation by MTS method, MKN45; type: cell-based; conditions: Homo sapiens, MKN-45; Table 1, MKN45; read-out: Tumour cell proliferative activity/IC50(nM) gastric Cancer MKN45
Excerpt: (§1) (2) Detection of Cell Proliferation by MTS Method
(§2) The MTS assay is a method for indirectly determining the number of living cells via colourimetric method. MTS is a newly synthesised tetrazole compound that reflects cell viability, which can be reduced by succinate dehydrogenase in the mitochondria of living cells to an orange-coloured formazan with an absorbance of the reduced product measured at 490 nm being in proportion to the number of living cells, thus reflecting the cell viability. This assay can be used to evaluate the effect of the compound on the proliferation of pancreatic cancer cells, thereby determining the inhibitory effect of the compound on the proliferation of pancreatic cancer cells and to calculate the IC^50. Each cells were inoculated uniformly into a 96-well plate at a density of 1-20×10^3 cells/well, 100 μL per well, and placed in a constant temperature incubator until the cells adhered to the wall. The control group was added with the corresponding medium and the experimental groups were given different concentrations of the compound prepared by the examples of the present invention, and the cells were taken out 24-96 h after administration for observing the cell state under a microscope. Under light-proof conditions, MTS was added and well mixed, the mixture was placed in a constant temperature incubator at 37° C., and the light absorption value were measured using an enzyme marker at 490 nm and the experiment was repeated for three times, IC50 was calculated with GraphPad5 Prism software.

Huh7 = experiment: Cell proliferation by MTS method, Huh7; type: cell-based; conditions: Homo sapiens, Huh-7; Table 1, Huh7; read-out: Tumour cell proliferative activity/IC50(nM) Liver Cancer Huh7
Excerpt: as §1, §2

Capan-2 = experiment: Cell proliferation by MTS method, Capan-2; type: cell-based; conditions: for IC50: Homo sapiens
Excerpt: as §1, §2

HCC827 = experiment: Cell proliferation by MTS method, HCC827; type: cell-based; conditions: Homo sapiens; Table 1, HCC827; read-out: Tumour cell proliferative activity/IC50(nM) Lung Cancer HCC827
Excerpt: as §1, §2

[1] = Table 1, Capan-2, read-out: Tumour cell proliferative activity/IC50(nM) Pancreatic Cancer Capan-2

Sequence of STAT3 protein (P40763 whole entry): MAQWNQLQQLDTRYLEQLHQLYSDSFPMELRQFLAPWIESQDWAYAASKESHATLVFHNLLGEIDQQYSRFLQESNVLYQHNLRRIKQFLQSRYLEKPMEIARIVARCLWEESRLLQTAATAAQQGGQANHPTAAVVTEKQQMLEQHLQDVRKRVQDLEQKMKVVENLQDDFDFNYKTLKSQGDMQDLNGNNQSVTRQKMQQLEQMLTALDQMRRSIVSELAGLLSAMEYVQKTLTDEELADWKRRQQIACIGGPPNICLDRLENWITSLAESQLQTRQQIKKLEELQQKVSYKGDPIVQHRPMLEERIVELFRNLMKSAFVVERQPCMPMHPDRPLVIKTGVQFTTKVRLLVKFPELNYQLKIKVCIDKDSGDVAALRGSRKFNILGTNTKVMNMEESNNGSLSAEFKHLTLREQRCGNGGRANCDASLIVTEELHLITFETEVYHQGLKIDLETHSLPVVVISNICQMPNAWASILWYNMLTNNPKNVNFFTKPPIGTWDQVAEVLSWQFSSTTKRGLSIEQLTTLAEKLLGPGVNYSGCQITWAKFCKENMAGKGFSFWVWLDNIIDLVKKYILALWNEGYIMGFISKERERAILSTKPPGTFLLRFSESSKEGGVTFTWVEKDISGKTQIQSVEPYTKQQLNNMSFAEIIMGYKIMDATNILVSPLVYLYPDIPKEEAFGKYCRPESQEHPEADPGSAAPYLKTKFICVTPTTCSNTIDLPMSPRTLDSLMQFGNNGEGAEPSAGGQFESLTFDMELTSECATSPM

COc1ccc(-c2noc(-c3cnc(Oc4ccc5cc(C(=O)N6CCN(Cc7ccc(OCC(F)(F)F)cc7)CC6)n(C)c5c4)cn3)n2)cc1 [Example 5, (6-((5-(3-(4-methoxyphenyl)-1,2,4-oxadiazol-5-yl)pyrazin-2-yl)oxy)1-methyl-1H-indol-2-yl)(4-(4-(2,2,2-trifluoroethoxy)benzyl)piperazin-1-yl)methanone] was tested, and the Kd (STAT3 protein) was under 10 nM, the IC50 (MKN45) was under 10 nM and the IC50 (Huh7) was under 10 nM. It also gave an IC50 (Capan-2; [1]) of under 10 nM and an IC50 (HCC827) of under 10 nM.
Work on Cn1c(C(=O)N2CCN(Cc3ccc(OCC(F)(F)F)cc3)CC2)cc2ccc(Oc3cnc(-c4nc(-c5ccccc5C(F)(F)F)no4)cn3)cc21 [Example 7, (6-((5-(3-(2-(trifluoromethyl)phenyl)-1,2,4-oxadiazol-5-yl)pyrazin-2-yl)oxy)-1-methyl-1H-indol-2-yl)(4-(4-(2,2,2-trifluoroethoxy)benzyl)piperazin-1-yl)methanone] yielded a Kd (STAT3 protein) of under 1 nM, an IC50 (MKN45) of under 1 nM and an IC50 (Huh7) of under 1 nM. The IC50 (Capan-2; Capan-2, FIG. 5B, read-out: IC50, inhibition of proliferation of pancreatic cancer cells) was 0.49 nM, the IC50 (Capan-2; [1]) was under 1 nM and the “improvement of anti-tumor proliferative activity over OPB51602 and IACS-010759” value (Capan-2; pancreatic cancer cells, FIG. 5B) was 10 times. The IC50 (HCC827) was under 1 nM.
In the case of Cn1c(C(=O)N2CCN(Cc3ccc(OCC(F)(F)F)cc3)CC2)cc2ccc(Oc3cnc(-c4nc(-c5ccc(Cl)cc5)no4)cn3)cc21 [Example 11, (6-((5-(3-(4-chlorophenyl)-1,2,4-oxadiazol-5-yl)pyrazin-2-yl)oxy)-1-methyl-1H-indol-2-yl) (4-(4-(2,2,2-trifluoroethoxy)benzyl)piperazin-1-yl)methanone], the Kd (STAT3 protein) is reported as under 10 nM, the IC50 (MKN45) is reported as under 10 nM and the IC50 (Huh7) is reported as under 10 nM. It also gave an IC50 (Capan-2; [1]) of under 10 nM and an IC50 (HCC827) of under 10 nM.
Cc1cccc(CN2CCN(C(=O)c3cc4ccc(Oc5cnc(-c6nc(-c7ccc(C(F)(F)F)cc7)no6)cn5)cc4n3C)CC2)c1 [Example 24, (1-methyl-6-((5-(3-(4-(trifluoromethyl)phenyl)-1,2,4-oxadiazol-5-yl)pyrazin-2-yl)oxy)-1H-indol-2-yl) (4-(3-methylbenzyl)piperazin-1-yl)methanone] was tested, and the Kd (STAT3 protein) was under 100 nM, the IC50 (MKN45) was under 1000 nM and the IC50 (Huh7) was under 1000 nM. It also gave an IC50 (Capan-2; [1]) of under 1000 nM and an IC50 (HCC827) of under 1000 nM.
Work on COCCn1c(C(=O)N2CCN(Cc3ccc(OCC(F)(F)F)cc3)CC2)cc2ccc(Oc3cnc(-c4nc(-c5ccc(C(F)(F)F)cc5)no4)cn3)cc21 [Example 18, (1-(2-methoxyethyl)-6-((5-(3-(4-(trifluoromethyl)phenyl)-1,2,4-oxadiazol-5-yl)pyrazin-2-yl)oxy)-1H-indol-2-yl) (4-(4-(2,2,2-trifluoroethoxy)benzyl)piperazin-1-yl)methanone] yielded a Kd (STAT3 protein) of under 100 nM, an IC50 (MKN45) of under 100 nM and an IC50 (Huh7) of under 100 nM. It also gave an IC50 (Capan-2; [1]) of under 100 nM and an IC50 (HCC827) of under 100 nM.
Cn1c(C(=O)N2CCN(Cc3ccc(OCC(F)(F)F)cc3)CC2)cc2ccc(Oc3cnc(-c4nc(-c5ccc(Br)cc5)no4)cn3)cc21 [Example 12, (6-((5-(3-(4-bromophenyl)-1,2,4-oxadiazol-5-yl)pyrazin-2-yl)oxy)-1-methyl-1H-indol-2-yl) (4-(4-(2,2,2-trifluoroethoxy)benzyl)piperazin-1-yl)methanone] gave a Kd (STAT3 protein) of under 10 nM, an IC50 (MKN45) of under 10 nM and an IC50 (Huh7) of under 10 nM. For the same compound, the IC50 (Capan-2; [1]) was under 10 nM and the IC50 (HCC827) was under 10 nM.
Work on COC(=O)CN1CCN(C(=O)c2cc3ccc(Oc4cnc(-c5nc(-c6ccc(C(F)(F)F)cc6)no5)cn4)cc3n2C)CC1 [Example 37, Methyl 2-(4-(1-methyl-6-((5-(3-(4-(trifluoromethyl)phenyl)-1,2,4-oxadiazol-5-yl)pyrazin-2-yl)oxy)-1H-indol-2-carbonyl)piperazin-1-yl)acetate] yielded a Kd (STAT3 protein) of under 100 nM, an IC50 (MKN45) of under 1000 nM and an IC50 (Huh7) of under 1000 nM. It also gave an IC50 (Capan-2; [1]) of under 1000 nM and an IC50 (HCC827) of under 1000 nM.
In the case of CN1CCN(C(=O)c2cc3ccc(Oc4cnc(-c5nc(-c6ccc(C(F)(F)F)cc6)no5)cn4)cc3n2C)CC1 [Example 34, (1-methyl-6-((5-(3-(4-(trifluoromethyl)phenyl)-1,2,4-oxadiazol-5-yl)pyrazin-2-yl)oxy)-1H-indol-2-yl)(4-methylpiperazin-1-yl)methanone], the Kd (STAT3 protein) is reported as under 100 nM, the IC50 (MKN45) is reported as under 1000 nM and the IC50 (Huh7) is reported as under 1000 nM. For the same compound, the IC50 (Capan-2; [1]) was under 1000 nM and the IC50 (HCC827) was under 1000 nM.
For Cn1c(C(=O)N2CCN(Cc3ccc(Cl)cc3)CC2)cc2ccc(Oc3cnc(-c4nc(-c5ccc(C(F)(F)F)cc5)no4)cn3)cc21 [Example 27, (4-(4-chlorobenzyl)piperazin-1-yl)(1-methyl-6-((5-(3-(4-(trifluoromethyl)phenyl)-1,2,4-oxadiazol-5-yl)pyrazin-2-yl)oxy)-1H-indol-2-yl)methanone], the Kd (STAT3 protein) was under 100 nM, the IC50 (MKN45) was under 100 nM and the IC50 (Huh7) was under 100 nM. It also gave an IC50 (Capan-2; [1]) of under 100 nM and an IC50 (HCC827) of under 100 nM.
For C=CCn1c(C(=O)N2CCN(Cc3ccc(OCC(F)(F)F)cc3)CC2)cc2ccc(Oc3cnc(-c4nc(-c5ccc(C(F)(F)F)cc5)no4)cn3)cc21 [Example 17, (1-allyl-6-((5-(3-(4-(trifluoromethyl)phenyl)-1,2,4-oxadiazol-5-yl)pyrazin-2-yl)oxy)-1H-indol-2-yl) (4-(4-(2,2,2-trifluoromethoxy)benzyl)piperazin-1-yl)methanone], the Kd (STAT3 protein) was under 10 nM, the IC50 (MKN45) was under 10 nM and the IC50 (Huh7) was under 10 nM. For the same compound, the IC50 (Capan-2; [1]) was under 10 nM and the IC50 (HCC827) was under 10 nM.
Cn1c(C(=O)N2CCN(C(=O)CCl)CC2)cc2ccc(Oc3cnc(-c4nc(-c5ccc(C(F)(F)F)cc5)no4)cn3)cc21 [Example 38, 2-chloro-1-(4-(1-methyl-6-((5-(3-(4-(trifluoromethyl)phenyl)-1,2,4-oxadiazol-5-yl)pyrazin-2-yl)oxy)-1H-indol-2-carbonyl)piperazin-1-yl)ethanone] showed a Kd (STAT3 protein) of under 100 nM, an IC50 (MKN45) of under 1000 nM and an IC50 (Huh7) of under 1000 nM. The IC50 (Capan-2; [1]) was under 1000 nM and the IC50 (HCC827) was under 1000 nM.
Cn1c(C(=O)N2CCN(Cc3ccc(C(F)(F)F)cc3)CC2)cc2ccc(Oc3cnc(-c4nc(-c5ccc(C(F)(F)F)cc5)no4)cn3)cc21 [Example 30, (1-methyl-6-((5-(3-(4-(trifluoromethyl)phenyl)-1,2,4-oxadiazol-5-yl)pyrazin-2-yl)oxy)-1H-indol-2-yl)(4-(4-(trifluoromethyl)benzyl)piperazin-1-yl)methanone] showed a Kd (STAT3 protein) of under 1000 nM, an IC50 (MKN45) of under 1000 nM and an IC50 (Huh7) of under 1000 nM. It also gave an IC50 (Capan-2; [1]) of under 1000 nM and an IC50 (HCC827) of under 1000 nM.
In the case of O=C(c1cc2ccc(Oc3cnc(-c4nc(-c5ccc(C(F)(F)F)cc5)no4)cn3)cc2n1Cc1ccccc1)N1CCN(Cc2ccc(OCC(F)(F)F)cc2)CC1 [Example 22], the Kd (STAT3 protein) is reported as under 100 nM, the IC50 (MKN45) is reported as under 1000 nM and the IC50 (Huh7) is reported as under 1000 nM. The IC50 (Capan-2; [1]) was under 1000 nM and the IC50 (HCC827) was under 1000 nM.
Cn1c(C(=O)N2CCN(Cc3ccccc3OCC(F)(F)F)CC2)cc2ccc(Oc3cnc(-c4nc(-c5ccc(C(F)(F)F)cc5)no4)cn3)cc21 [Example 33, (1-methyl-6-((5-(3-(4-(trifluoromethyl)phenyl)-1,2,4-oxadiazol-5-yl)pyrazin-2-yl)oxy)-1H-indol-2-yl)(4-(2-(2,2,2-trifluoroethoxy)benzyl)piperazin-1-yl)methanone] showed a Kd (STAT3 protein) of under 100 nM, an IC50 (MKN45) of under 1000 nM and an IC50 (Huh7) of under 1000 nM. The IC50 (Capan-2; [1]) was under 1000 nM and the IC50 (HCC827) was under 1000 nM.
Compound Cn1c(C(=O)N2CCN(Cc3ccc(F)cc3)CC2)cc2ccc(Oc3cnc(-c4nc(-c5ccc(C(F)(F)F)cc5)no4)cn3)cc21 [Example 26, (4-(4-fluorobenzyl)piperazin-1-yl)(1-methyl-6-((5-(3-(4-(trifluoromethyl)phenyl)-1,2,4-oxadiazol-5-yl)pyrazin-2-yl)oxy)-1H-indol-2-yl)methanone] has a Kd (STAT3 protein) of under 1000 nM, an IC50 (MKN45) of under 1000 nM and an IC50 (Huh7) of under 1000 nM. For the same compound, the IC50 (Capan-2; [1]) was under 1000 nM and the IC50 (HCC827) was under 1000 nM.
